For data set [1] the following is noted: aqueous preparation; reported in US 2010075853 A; cited from earlier work.
Data set [2] is described as follows: Heat storage experiment of the preparation product. The data set is classed as physicochemical. The procedure: In the preparation of solid preparations containing topramezone, the crystalline form I of the topramezone sodium salt can be better granulated compared with the anhydrous substance of the topramezone sodium salt. […] However, the preparation of type I topramezone sodium salt hydrate requires standing in water or a water-containing mixed solvent at −10° C.-15° C. for 10-48 h to complete the crystallization.

The nature of data set [3]: Product performance comparison: storage of preparation samples at 54° C. for 2 weeks. The data set is classed as physicochemical. The following applies: stored at 54° C. for 2 weeks; characters before and after storage compared. The procedure:
The preparation samples 1, 2, 3, 4, 5, 6, 7, 8, 9, 10, 11 and 12 prepared in Application examples 1-4 are stored at 54° C. for 2 weeks, respectively. The character changes of each sample before and after storage are compared.

Turning to `Cc1c(C(=O)c2cnn(C)c2[O-])ccc(S(C)(=O)=O)c1C1=NOCC1.[Na+]` [topramezone sodium salt], in data set [1], the “Activity compared with topramezone acid” value is “equivalent to or even higher than that of topramezone acid”.

Take `Cc1c(C(=O)c2cnn(C)c2[O-])ccc(S(C)(=O)=O)c1C1=NOCC1.Cc1c(C(=O)c2cnn(C)c2[O-])ccc(S(C)(=O)=O)c1C1=NOCC1.O.O.O.O.O.[Na+].[Na+]` [type I topramezone sodium salt hydrate, 2.5 water topramezone sodium salt hydrate]: the “Stability of the preparation in heat storage, compared with the preparation based on the anhydrous substance” value in data set [2] is reported as “more stable”. As for “type II crystalline topramezone sodium salt hydrate”, the Character changes result in data set [3] was “stable after storage”.

(Values after US12162869B2, “Type II crystalline topramezone sodium salt hydrate, preparation method therefor and use thereof” (Rotam Agrochem International Company Limited, priority 2022, dated 2024).)
